Reference: patent US20190004070A9 (JNC CORPORATION, priority 2012, published 2019)
“Also recorded” adds a separate entry of the source.

B1: abciximab: Immunoglobulin Fragment Fab Fragment Chimeric monoclonal antibody 7E3 (GP IIbIIIa receptor blocker) (antibody, chains of the INN, looked up, V domains shown)
VH: EVQLQQSGTVLARPGASVKMSCEASGYTFTNYWMHWVKQRPGQGLEWIGAIYPGNSDTSYIQKFKGKAKLTAVTSTTSVYMELSSLTNEDSAVYYCTLYDGYYVFAYWGQGTLVTVSA
VL: EIVLTQSPVTLSVTPGDSVSLSCRASRDISNNLHWFQQTSHESPRLLIKYASQSMSGIPSRFSGSGSGTDFTLSINSVETEDFGMYFCQQTNSWPYTFGGGTKLEIK
modifications: Fab

How the values were obtained:
[1] = tested on: human platelet rich plasma; experiment: Agonist-induced platelet aggregation in normal and aspirinized PRP, PAP 8E platelet aggregometer (Example 1); type: cell-based; settings: for ability to detect the drug in the presence of aspirin: aspirinized PRP, synthetic collagen 8-64 ng/mL; for effect on biological collagen-induced aggregation: Bio/Data and Chrono Log biological collagen; for effect on Bio/Data collagen-induced aggregation: Bio/Data collagen 190 μg/mL; for effect on arachidonic acid-induced aggregation: arachidonic acid 500 μg/mL; for antiplatelet effect in synthetic collagen-induced aggregation at lower concentrations: synthetic collagen 32 ng/mL and lower (32, 16, 8 ng/mL); for effect on 64 ng/mL synthetic collagen-induced aggregation: synthetic collagen 64 ng/mL
Description: ADP was obtained from Bio/Data Corporation, Horsham, Pa. Each vial was reconstituted with 1 mL of deionized water to make a 100 μM working solution. The final concentration of ADP in the aggregation cuvette was 10 μM.
Arachidonic acid was obtained from Bio/Data Corporation, Horsham, Pa. Each vial was reconstituted with 0.5 mL deionized water to make a 5 mg/mL working solution. The final concentration of arachidonic acid in the aggregation cuvette was 500 μg/mL.
Biological Collagen was obtained from Bio/Data Corporation, Horsham, Pa. Each vial was reconstituted with 0.5 mL deionized water to make a 1.9 mg/mL working solution. The final concentration of Bio/Data collagen in the aggregation cuvette was 190 μg/mL.
Biological Collagen was obtained from Chrono Log Corporation, Havertown, Pa. as a 1 mg/mL solution. A working solution of 100 μg/mL was made by dilution with physiologic saline. The final concentration of Chrono Log collagen in the aggregation cuvette was 10 μg/mL.
Synthetic collagen was provided by JNC Corporation, Yokohama, Japan at working concentrations of 80, 160, 320 and 640 ng/mL. The final concentrations of synthetic collagen in the aggregation cuvette were 64, 32, 16 and 8 ng/mL.
Approval for the collection of whole blood from healthy human volunteers was granted from the Institutional Review Board of the Health Sciences Division of Loyola University Chicago. Whole blood was drawn using a double syringe technique from the antecubital vein and anticoagulated by the addition of 1 part 3.2% sodium citrate to (9 parts blood to 1 part citrate). Citrated blood was centrifuged at 80×g at room temperature for 15 minutes to make platelet rich plasma (PRP). Supernatant PRP was collected and kept at room temperature in capped tubes. The remaining citrated blood was recentrifuged at 1,100×g for 15 minutes to make platelet poor plasma (PPP). The platelet count of the PRP was determined using an ICHOR II Analyzer, Helena Laboratories, Beaumont, Tex. Platelet count in the PRP was adjusted to 250,000-300,000/μl by the addition of homologous PPP.
Six blood donors were used for this study. Each was drawn on separate days for the ‘non-aspirinized’ and ‘aspirinized’ portions of the protocol. For the ‘non-aspirinized’ portion of the protocol, one donor ([…]) was excluded from the final analysis as the aggregation responses were markedly different from that of the other 5 donors.
Platelet aggregation was measured using a PAP 8E platelet aggregometer (Bio/Data). Each well was blanked using PPP. 25 μl of saline or antiplatelet drug and 200 μl of PRP were added to cuvettes containing magnetic stir bars and incubated for three minutes to equilibrate the sample to 37° C. 25 μl of agonist was added to each cuvette and the aggregation profile was monitored until a plateau was achieved. Results were tabulated in terms of maximal aggregation level. Under some reaction conditions, reversible aggregation was observed. This was most commonly observed with ADP and arachidonic acid-induced aggregation in the presence of ticagrelor or cilostazol. Final aggregation levels were also tabulated.

[2] = tested on: PRP samples of healthy donors; experiment: LTAAs using synthetic collagen with anti-platelet medication added to the PRP sample (Example 2); type: cell-based; settings: synthetic collagen 12.5, 25, 50, 100 ng/mL
Description: Two healthy donors supplied the PRP samples. A panel of four different synthetic collagen concentrations were tested (12.5 ng/mL, 25 ng/mL, 50 ng/mL and 100 ng/mL Abciximab was added to the each of the four panels of different synthetic collagen concentrations. In one panel, saline was added as the control to each of the four synthetic collagen concentrations. In the second panel, 12.5 μg/mL (micrograms/mL) of abciximab was added to each of the four synthetic collagen concentrations. In a third panel, 25 μg/mL of abciximab was added to each of the four synthetic collagen concentrations. In a fourth panel, 50 μg/mL of abciximab was added to each of the four synthetic collagen concentrations. LTAAs were run for each and the PA, PS, SA, SS AUC, LP, DA, MA and FA was measured for each. The tests were run on each of the donors' samples.
Two healthy donors supplied the PRP samples. […] LTAAs were run for each and the PA, PS, SA, SS AUC, LP, DA, MA and FA was measured for each. […]

platelet aggregation = settings: Aspirin doses greater than 100 mg; cited from earlier work
[3] = non-aspirinized plasma, ADP 10 μM
[4] = non-aspirinized plasma, Chrono Log collagen 10 μg/mL

Molecule | ability to detect the drug in the presence of aspirin [1] | anti-platelet effect in arachidonic acid-induced aggregation ([1]; aspirinized plasma) | effect on ADP-induced aggregation [1, 3] | effect on biological collagen-induced aggregation ([1]; non-aspirinized plasma) | effect on Bio/Data collagen-induced aggregation ([1]; non-aspirinized plasma) | effect on Chrono Log collagen-induced aggregation [1, 4] | effect on arachidonic acid-induced aggregation ([1]; non-aspirinized plasma) | antiplatelet effect in synthetic collagen-induced aggregation at lower concentrations ([1]; non-aspirinized plasma) | effect on 64 ng/mL synthetic collagen-induced aggregation ([1]; non-aspirinized plasma) | detection of the drug by synthetic collagen LTAA [2] | also measured
CCCSc1nc(N[C@@H]2C[C@H]2c2ccc(F)c(F)c2)c2nnn([C@@H]3C[C@H](OCCO)[C@@H](O)[C@H]3O)c2n1 [ticagrelor, (1S,2S,3R,5S)-3-[7-[[(1R,2S)-2-(3,4-difluorophenyl)cyclopropyl]amino]-5-propylsulfanyltriazolo[4,5-d]pyrimidin-3-yl]-5-(2-hydroxyethoxy)cyclopentane-1,2-diol] | affected the ability; also recorded: can be detected | no longer observed | strongly inhibited; also recorded: inhibited | little effect | Neither Bio/Data collagen, Chrono Log collagen nor 64 ng/mL synthetic collagen was markedly impacted | Neither Bio/Data collagen, Chrono Log collagen nor 64 ng/mL synthetic collagen was markedly impacted | inhibited to a similar extent | could be identified; also recorded: readily apparent | Neither Bio/Data collagen, Chrono Log collagen nor 64 ng/mL synthetic collagen was markedly impacted; also recorded: minimal effect | the assays worked with both | anti-platelet effect in 8 ng/mL synthetic collagen-induced aggregation ([1]; aspirinized plasma): no longer observed; anti-platelet effect in 16 and 32 ng/mL synthetic collagen-induced aggregation ([1]; aspirinized plasma): reduced; effect of adding aspirin on the drug's ADP-induced aggregation response ([1]; aspirinized plasma, ADP 10 μM): did not affect; effect of aspirin dose on ticagrelor's inhibition of platelet aggregation (platelet aggregation): reduce the ability of ticagrelor to inhibit platelet aggregation
O=C1CCc2cc(OCCCCc3nnnn3C3CCCCC3)ccc2N1 [cilostazol] | negated the ability to detect cilostazol; also recorded: affected the ability |  | minimally affected; also recorded: weaker, concentration-dependent inhibition | unaffected | did not inhibit | did not inhibit | strongly inhibited | could be observed; also recorded: readily apparent | did not inhibit; also recorded: minimal effect |  | 
CC(=O)Oc1ccccc1C(=O)O [aspirin, 2-acetyloxybenzoic acid] |  |  |  |  |  |  |  |  |  |  | effect of aspirin on ADP-induced aggregation ([1]; 10 μM ADP): minimally affected; effect of aspirin on Chrono Log collagen-induced aggregation ([1]; 10 μg/mL Chrono Log collagen): did not inhibit; also recorded: not inhibited; effect of aspirin on Bio/Data collagen-induced aggregation ([1]; 0.19 mg/mL Bio/Data collagen): minimally affected; also recorded: not inhibited; effect of aspirin on synthetic collagen-induced aggregation ([1]; all synthetic collagen concentrations tested (8-64 ng/mL)): lower levels of aggregation; also recorded: higher sensitivity to aspirin; arachidonic acid-induced aggregation in aspirinized plasma ([1]; aspirin taken orally <48 hours before draw or 100 μM in vitro, no other drug): < 20%; response to arachidonic acid in aspirinized plasma ([1]; aspirin taken orally or 100 μM in vitro): nearly completely blunted
B1 | readily detectable | complete inhibition | inhibited | inhibited |  |  | most sensitive; also recorded: inhibited | most sensitive; also recorded: readily apparent | inhibited by abciximab to a comparable degree | the assays worked with both | inhibition of Chrono Log collagen-induced aggregation ([1]; aspirinized PRP compared with non-aspirinized, Chrono Log collagen 10 μg/mL): stronger inhibition; concentration at which inhibition of Bio/Data collagen-induced aggregation was observed ([1]; non-aspirinized plasma): 5 µg/mL; concentration at which inhibition of Chrono Log collagen-induced aggregation was observed ([1]; non-aspirinized plasma): 5 μg/mL; inhibition of agonist-induced aggregation ([1]; non-aspirinized plasma, concentration range tested 1.25-5 μg/mL): concentration-dependent inhibition
